Assay results reported in US20260070924A1, “INDAZOLE MACROCYCLES AND THEIR USE” (BLOSSOMHILL THERAPEUTICS, INC., priority 2022, published 2026).
Like-named read-outs stand apart in the source and are kept apart here.

Key:
[1] = biological target: CLK2 (Homo sapiens (Human), UniProt P49760); experiment: CLK kinase activity assay (ADP-Glo); assay type: biochemical
Protocol: (§1) Kinase protein and substrate were pre-diluted in the HEPES assay buffer (100 mM HEPES, pH 7.5, 0.01% Triton X-100, 0.1% BSA, 5 mM MgCl2, 1 mM DTT, 10 μM Sodium Orthovanadate, 10 μM Beta-Glycerophosphate) dispensed into 384 well plate (5 μL per well). Control samples (0%-inhibition in the absence of inhibitor, DMSO only) and 100%-inhibition (in the absence of enzyme) were assembled in replicates of six and were used to calculate %-inhibition in the presence of compounds. Test compounds were added to the protein samples by acoustic dispensing (Labcyte Echo550). Concentration of DMSO was equalized to 1% in all samples. Reactions were initiated by addition of ATP by acoustic dispensing (Labcyte Echo550) and incubated according to assay specific incubation time. After incubation, 5 uL of Promega ADP-Glo reagent was added and incubated for 40 minutes. After 40 minutes, 10 uL of Promega kinase detection reagent was added. After 10 min of incubation with Kinase detection reagent, the luminescence was read on microplate reader (Biotek Synergy).

[2] = biological target: CLK4 (Homo sapiens (Human), UniProt Q9HAZ1); experiment: CLK kinase activity assay (ADP-Glo); assay type: biochemical
Protocol: as §1

[3] = biological target: CLK3 (Homo sapiens (Human), UniProt P49761); experiment: CLK kinase activity assay (ADP-Glo); assay type: biochemical
Protocol: as §1

[4] = biological target: CLK1 (Homo sapiens (Human), UniProt P49759); experiment: CLK kinase activity assay (ADP-Glo); assay type: biochemical
Protocol: as §1

[5] = test system: MV-4-11 cells; experiment: MV-4-11 cell proliferation assay (CellTiter-Glo 2.0); assay type: cell-based; conditions: MV-4-11, 384-well, 11-dose dilution series, read-out: IC50, inhibition of MV-4-11 cell proliferation
Protocol: MV-4-11 cell line was purchased from ATCC and maintained in RPMI medium supplemented with 10% fetal bovine serum and 100 U/mL of penicillin/streptomycin. One thousand MV-4-11 cells/50 μl per well were seeded in white 384-well plate, followed by treatment with indicated compounds in a 11-dose dilution series. Cell proliferation was measured using CellTiter-Glo 2.0 luciferase-based ATP detection assay (Promega, Madison, WI) following the manufacturer's protocol. Plates were then read on a TECAN Sparks multimode microplate reader. Data was analyzed using GraphPad Prism 9 (GraphPad Software, San Diego, CA) to obtain IC50 values.

[6] = biological target: FLT3 (Homo sapiens (Human), UniProt P36888); experiment: HotSpot radiometric kinase assay (Reaction Biology); assay type: biochemical
[7] = biological target: FLT3-ITD (Homo sapiens, UniProt P36888, ITD); experiment: as above; assay type: biochemical
[8] = biological target: PIM1 (Homo sapiens (Human), UniProt P11309); experiment: as above; assay type: biochemical
Protocol: (§2) Briefly, specific kinase/substrate pairs along with required cofactors were prepared in reaction buffer; 20 mM Hepes pH 7.5, 10 mM MgCl2, 1 mM EGTA, 0.02% Brij35, 0.02 mg/ml BSA, 0.1 mM Na3VO4, 2 mM DTT, 1% DMSO. Compounds were delivered into the reaction, followed ˜20 minutes later by addition of a mixture of ATP (Sigma, St. Louis MO) and ^33P ATP (Perkin Elmer, Waltham MA) to a final concentration of […]. Reactions were carried out at room temperature for 120 min, followed by spotting of the reactions onto P81 ion exchange filter paper (Whatman Inc., Piscataway, NJ). Unbound phosphate was removed by extensive washing of filters in 0.75% phosphoric acid. […] IC50 values and curve fits were obtained using Prism (GraphPad Software).

[9] = biological target: PIM3 (Homo sapiens (Human), UniProt Q86V86); experiment: as above; assay type: biochemical
Protocol: as §2

[10] = biological target: PIM2 (Homo sapiens (Human), UniProt Q9P1W9); experiment: as above; assay type: biochemical
Protocol: as §2

[11] = biological target: FLT3-ITD (Homo sapiens, UniProt P36888); experiment: as above; assay type: biochemical
Chain of FLT3-ITD (Homo sapiens, UniProt P36888) (P36888 whole entry, looked up, change not shown): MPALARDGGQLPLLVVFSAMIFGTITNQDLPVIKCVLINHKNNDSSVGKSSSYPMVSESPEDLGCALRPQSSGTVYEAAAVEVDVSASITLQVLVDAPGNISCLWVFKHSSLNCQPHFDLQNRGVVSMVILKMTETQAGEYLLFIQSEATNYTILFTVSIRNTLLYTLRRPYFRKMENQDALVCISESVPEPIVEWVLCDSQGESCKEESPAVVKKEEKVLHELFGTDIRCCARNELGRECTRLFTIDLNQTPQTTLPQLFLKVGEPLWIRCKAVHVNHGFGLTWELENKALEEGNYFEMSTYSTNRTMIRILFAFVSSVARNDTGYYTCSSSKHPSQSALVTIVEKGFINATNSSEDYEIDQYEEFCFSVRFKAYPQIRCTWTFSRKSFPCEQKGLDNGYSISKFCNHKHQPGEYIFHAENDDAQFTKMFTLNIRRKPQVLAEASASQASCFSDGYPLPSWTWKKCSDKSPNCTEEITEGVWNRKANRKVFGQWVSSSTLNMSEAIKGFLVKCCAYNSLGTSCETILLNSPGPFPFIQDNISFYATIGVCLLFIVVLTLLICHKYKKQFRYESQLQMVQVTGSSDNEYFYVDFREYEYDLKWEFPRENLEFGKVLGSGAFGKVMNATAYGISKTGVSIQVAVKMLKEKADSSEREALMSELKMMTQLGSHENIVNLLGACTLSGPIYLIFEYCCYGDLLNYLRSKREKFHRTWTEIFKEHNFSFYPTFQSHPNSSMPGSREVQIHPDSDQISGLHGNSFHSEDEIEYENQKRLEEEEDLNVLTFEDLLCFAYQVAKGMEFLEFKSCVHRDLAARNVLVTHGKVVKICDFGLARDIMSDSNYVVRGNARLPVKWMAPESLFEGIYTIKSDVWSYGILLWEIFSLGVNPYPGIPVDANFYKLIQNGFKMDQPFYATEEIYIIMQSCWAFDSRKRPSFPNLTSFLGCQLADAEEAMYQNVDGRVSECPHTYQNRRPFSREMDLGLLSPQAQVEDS

Chain of CLK1 (P49759 whole entry): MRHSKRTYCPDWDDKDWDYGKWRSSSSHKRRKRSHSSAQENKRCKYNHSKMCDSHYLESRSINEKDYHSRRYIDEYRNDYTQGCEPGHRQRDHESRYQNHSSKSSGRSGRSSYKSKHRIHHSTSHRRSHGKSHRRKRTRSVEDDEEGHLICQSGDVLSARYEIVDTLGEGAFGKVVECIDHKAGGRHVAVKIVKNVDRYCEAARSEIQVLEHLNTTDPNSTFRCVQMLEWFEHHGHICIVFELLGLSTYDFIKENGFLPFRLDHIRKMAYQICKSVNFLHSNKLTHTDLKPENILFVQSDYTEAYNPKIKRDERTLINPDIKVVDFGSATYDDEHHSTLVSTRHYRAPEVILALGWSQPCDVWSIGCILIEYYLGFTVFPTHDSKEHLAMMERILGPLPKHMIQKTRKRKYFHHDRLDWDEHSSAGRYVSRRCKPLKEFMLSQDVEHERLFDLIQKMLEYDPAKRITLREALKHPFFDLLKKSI
Chain of CLK2 (P49760 whole entry): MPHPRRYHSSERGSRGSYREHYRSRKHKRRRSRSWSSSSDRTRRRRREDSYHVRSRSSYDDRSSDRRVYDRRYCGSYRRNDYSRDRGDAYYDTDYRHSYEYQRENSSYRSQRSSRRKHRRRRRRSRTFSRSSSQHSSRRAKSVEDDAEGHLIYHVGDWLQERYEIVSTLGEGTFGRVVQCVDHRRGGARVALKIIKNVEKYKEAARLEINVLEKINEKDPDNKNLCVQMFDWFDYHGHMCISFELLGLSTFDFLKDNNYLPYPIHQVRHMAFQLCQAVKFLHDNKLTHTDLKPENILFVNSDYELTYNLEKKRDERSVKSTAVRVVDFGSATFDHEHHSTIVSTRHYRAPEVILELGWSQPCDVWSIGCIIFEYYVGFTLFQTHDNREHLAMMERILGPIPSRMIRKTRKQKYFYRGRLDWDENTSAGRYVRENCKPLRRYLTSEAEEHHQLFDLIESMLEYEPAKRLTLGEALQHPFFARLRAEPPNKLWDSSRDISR
Chain of PIM2 (Q9P1W9 whole entry): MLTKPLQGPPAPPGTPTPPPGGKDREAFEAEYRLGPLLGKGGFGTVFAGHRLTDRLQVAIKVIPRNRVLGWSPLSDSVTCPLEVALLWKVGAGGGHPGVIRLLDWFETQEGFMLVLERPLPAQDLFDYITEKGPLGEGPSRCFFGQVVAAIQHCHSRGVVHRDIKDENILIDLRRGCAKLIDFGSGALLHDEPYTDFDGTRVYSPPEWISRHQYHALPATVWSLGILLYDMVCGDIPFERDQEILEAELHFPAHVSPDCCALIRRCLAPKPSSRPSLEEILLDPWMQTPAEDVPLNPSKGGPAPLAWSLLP
Chain of CLK4 (Q9HAZ1 whole entry): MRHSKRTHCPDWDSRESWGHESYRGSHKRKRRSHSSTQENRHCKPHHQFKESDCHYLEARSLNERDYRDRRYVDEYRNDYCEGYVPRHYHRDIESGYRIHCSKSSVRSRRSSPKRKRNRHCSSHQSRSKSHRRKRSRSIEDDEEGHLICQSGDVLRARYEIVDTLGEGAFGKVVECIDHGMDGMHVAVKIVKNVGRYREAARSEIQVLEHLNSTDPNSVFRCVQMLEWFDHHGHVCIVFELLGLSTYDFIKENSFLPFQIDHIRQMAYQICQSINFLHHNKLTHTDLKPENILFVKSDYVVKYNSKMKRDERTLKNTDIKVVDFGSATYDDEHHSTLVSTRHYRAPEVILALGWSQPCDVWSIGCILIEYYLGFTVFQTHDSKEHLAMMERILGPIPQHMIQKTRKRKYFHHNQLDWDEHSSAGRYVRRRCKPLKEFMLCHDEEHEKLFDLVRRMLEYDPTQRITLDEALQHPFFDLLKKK
Chain of PIM1 (P11309 whole entry): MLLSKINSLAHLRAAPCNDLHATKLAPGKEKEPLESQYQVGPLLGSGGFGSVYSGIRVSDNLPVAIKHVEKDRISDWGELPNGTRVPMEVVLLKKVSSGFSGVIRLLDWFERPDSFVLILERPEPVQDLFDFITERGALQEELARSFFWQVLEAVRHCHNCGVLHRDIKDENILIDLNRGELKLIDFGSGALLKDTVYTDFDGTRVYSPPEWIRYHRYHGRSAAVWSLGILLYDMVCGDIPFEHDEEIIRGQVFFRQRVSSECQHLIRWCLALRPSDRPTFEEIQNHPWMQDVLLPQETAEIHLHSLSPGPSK
Chain of FLT3-ITD (Homo sapiens, UniProt P36888, ITD) (P36888 whole entry, looked up, change not shown): as the sequence (P36888 whole entry, looked up, change not shown) above
Chain of CLK3 (P49761 whole entry): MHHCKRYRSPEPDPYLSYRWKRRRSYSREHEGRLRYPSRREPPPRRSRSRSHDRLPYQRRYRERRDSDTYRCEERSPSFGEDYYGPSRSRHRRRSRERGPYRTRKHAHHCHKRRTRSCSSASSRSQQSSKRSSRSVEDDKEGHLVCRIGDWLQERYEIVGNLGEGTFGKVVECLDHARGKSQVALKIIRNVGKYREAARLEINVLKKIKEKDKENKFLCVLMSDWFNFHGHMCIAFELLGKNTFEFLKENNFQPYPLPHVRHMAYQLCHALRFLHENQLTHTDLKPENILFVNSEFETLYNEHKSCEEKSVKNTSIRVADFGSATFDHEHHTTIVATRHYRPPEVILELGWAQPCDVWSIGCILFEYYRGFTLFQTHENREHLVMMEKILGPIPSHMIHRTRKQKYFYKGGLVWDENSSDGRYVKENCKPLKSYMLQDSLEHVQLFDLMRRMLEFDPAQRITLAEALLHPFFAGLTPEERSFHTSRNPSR
Chain of FLT3 (P36888 27-993): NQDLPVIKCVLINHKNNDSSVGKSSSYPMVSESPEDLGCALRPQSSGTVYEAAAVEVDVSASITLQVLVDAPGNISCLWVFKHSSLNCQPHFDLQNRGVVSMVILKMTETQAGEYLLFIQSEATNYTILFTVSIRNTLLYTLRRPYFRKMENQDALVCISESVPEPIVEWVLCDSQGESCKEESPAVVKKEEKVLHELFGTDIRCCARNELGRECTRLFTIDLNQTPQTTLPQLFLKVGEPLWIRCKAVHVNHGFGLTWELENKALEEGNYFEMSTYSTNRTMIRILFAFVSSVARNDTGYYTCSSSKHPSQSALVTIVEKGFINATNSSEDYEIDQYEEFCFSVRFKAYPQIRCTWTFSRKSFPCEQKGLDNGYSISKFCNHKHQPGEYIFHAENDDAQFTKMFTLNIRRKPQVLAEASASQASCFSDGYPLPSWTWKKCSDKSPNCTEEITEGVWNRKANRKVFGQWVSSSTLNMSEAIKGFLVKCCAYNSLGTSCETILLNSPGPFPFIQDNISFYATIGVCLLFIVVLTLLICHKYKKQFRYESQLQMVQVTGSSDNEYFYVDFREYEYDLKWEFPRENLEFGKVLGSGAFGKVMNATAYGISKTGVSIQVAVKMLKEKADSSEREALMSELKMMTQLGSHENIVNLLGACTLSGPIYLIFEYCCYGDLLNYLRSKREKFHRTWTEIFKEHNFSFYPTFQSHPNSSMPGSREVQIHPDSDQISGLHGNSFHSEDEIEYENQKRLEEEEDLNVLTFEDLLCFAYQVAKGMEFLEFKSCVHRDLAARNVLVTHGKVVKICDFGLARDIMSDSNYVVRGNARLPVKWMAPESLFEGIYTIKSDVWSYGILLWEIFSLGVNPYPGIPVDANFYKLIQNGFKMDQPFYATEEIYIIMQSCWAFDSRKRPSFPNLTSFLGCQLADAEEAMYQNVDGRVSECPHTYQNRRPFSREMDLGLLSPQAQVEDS

Row | IC50 [1] [nM] | IC50 [2] [nM] | IC50 [3] [nM] | IC50 [4] [nM] | IC50 ([5]; Homo sapiens, MV4-11) [nM] | IC50 [6] [nM] | IC50 [7] [nM] | IC50 [8] [nM] | IC50 [9] [nM] | IC50 [10] [nM] | IC50 [11] [nM] | Compound | IC50 [5] [nM]
1 | 0.161 | 0.53 | 2.77 | 0.157 | 4.6 | – | – | – | – | – | – | Cc1nn(C)c2c1/C=C/c1n[nH]c3ccc(cc13)-c1cnn(C)c1CN(C)CCN(C)C2=O [Ex. 15, (18E)-8,10,13,15,17-pentamethyl-2,8,9,10,11,12,13,15-octahydro-14H-3,5-ethenotripyrazolo[3,4-f:3′,4′-j:4″,3″-n][1,4]diazacyclohexadecin-14-one] | –
2 | 0.16 | 0.758 | 10.4 | 0.299 | < 1 | – | – | – | – | – | – | Cc1nn(CCO)c2c1/C=C/c1n[nH]c3ccc(cc13)-c1cnn(C)c1OCCN(C)C2=O [Ex. 16, (17E)-14-(2-hydroxyethyl)-8,12,16-trimethyl-2,11,12,14-tetrahydro-8H-3,5-ethenotripyrazolo[3,4-f:3′,4′-j:4″,3″-n][1,4]oxazacyclopentadecin-13(10H)-one] | –
3 | – | – | – | – | 15.2 | 0.564 | 1.05 | – | – | – | – | Cc1c2c(nn1CCN1CCCC1)C(=O)N(C)CCOc1c(cnn1C)-c1ccc3[nH]nc(c3c1)/C=C/2 [Ex. 19, (17E)-8,12,16-trimethyl-15-[2-(pyrrolidin-1-yl)ethyl]-2,11,12,15-tetrahydro-8H-3,5-ethenotripyrazolo[3,4-f:3′,4′-j:4″,3″-n][1,4]oxazacyclopentadecin-13(10H)-one] | –
4 | 0.253 | 0.668 | 9.47 | 0.355 | < 0.2 | 0.093 | 0.527 | – | – | – | – | CCOc1nn(C)c2c1/C=C/c1n[nH]c3ccc(cc13)-c1cnn(C)c1OCCN(C)C2=O [Ex. 22, (17E)-16-ethoxy-8,12,14-trimethyl-2,11,12,14-tetrahydro-8H-3,5-ethenotripyrazolo[3,4-f:3′,4′-j:4″,3″-n][1,4]oxazacyclopentadecin-13(10H)-one] | –
5 | 0.225 | 1.39 | 5.53 | 0.843 | 4.1 | 0.416 | 0.967 | – | – | – | – | CCc1nn(C)c2c1/C=C/c1n[nH]c3ccc(cc13)-c1cnn(C)c1O[C@@H](C)CN(C)C2=O [Ex. 23, (10S,17E)-16-ethyl-8,10,12,14-tetramethyl-2,11,12,14-tetrahydro-8H-3,5-ethenotripyrazolo[3,4-f:3′,4′-j:4″,3″-n][1,4]oxazacyclopentadecin-13(10H)-one] | –
6 | 0.67 | 0.593 | 92.9 | 0.415 | 141 | 0.23 | 0.475 | – | – | – | – | CN1CCOc2c(cnn2C)-c2ccc3[nH]nc(c3c2)/C=C/c2c(C#N)nn(C)c2C1=O [Ex. 24, (17E)-8,12,14-trimethyl-13-oxo-2,10,11,12,13,14-hexahydro-8H-3,5-ethenotripyrazolo[3,4-f:3′,4′-j:4″,3″-n][1,4]oxazacyclopentadecine-16-carbonitrile] | –
7 | 1.11 | 3.03 | 108 | 1.55 | 7.6 | – | – | – | – | – | – | CCOc1nn(CCO)c2c1/C=C/c1n[nH]c3ccc(cc13)-c1cnn(C)c1OCCN(C)C2=O [Ex. 27, (17E)-16-ethoxy-14-(2-hydroxyethyl)-8,12-dimethyl-2,11,12,14-tetrahydro-8H-3,5-ethenotripyrazolo[3,4-f:3′,4′-j:4″,3″-n][1,4]oxazacyclopentadecin-13(10H)-one] | –
8 | – | – | – | – | – | 0.247 | – | 6.72 | 0.221 | 14 | 0.537 | CCc1c2c(nn1C)C(=O)N(C)CCOc1c(cnn1C)-c1ccc3[nH]nc(c3c1)/C=C/2 [compound 7, (17E)-16-ethyl-8,12,15-trimethyl-2,11,12,15-tetrahydro-8H-3,5-ethenotripyrazolo[3,4-f:3′,4′-j:4″,3″-n][1,4]oxazacyclopentadecin-13(10H)-one] | 73.1
9 | – | – | – | – | < 0.2 | – | – | 1.64 | 0.0732 | 8.17 | – | Cc1nn(C)c2c1/C=C/c1n[nH]c3ccc(cc13)-c1cnn(C)c1OCCN(C)C2=O [compound 8, (17E)-8,12,14,16-tetramethyl-2,11,12,14-tetrahydro-8H-3,5-ethenotripyrazolo[3,4-f:3′,4′-j:4″,3″-n][1,4]oxazacyclopentadecin-13(10H)-one] | –
10 | – | – | – | – | ~1 | 0.347 | 0.592 | 12.7 | 3.65 | 145 | – | Cc1c2c(nn1C)C(=O)N(C)CCOc1c(cnn1C)-c1ccc3[nH]nc(c3c1)/C=C/2 [compound 9, (17E)-8,12,15,16-tetramethyl-2,11,12,15-tetrahydro-8H-3,5-ethenotripyrazolo[3,4-f:3′,4′-j:4″,3″-n][1,4]oxazacyclopentadecin-13(10H)-one] | –
11 | – | – | – | – | 1.1 | 0.187 | 0.775 | – | – | – | – | Cc1nn(C(C)C)c2c1/C=C/c1n[nH]c3ccc(cc13)-c1cnn(C)c1OCCN(C)C2=O [compound 20, (17E)-8,12,16-trimethyl-14-(propan-2-yl)-2,11,12,14-tetrahydro-8H-3,5-ethenotripyrazolo[3,4-f:3′,4′-j:4″,3″-n][1,4]oxazacyclopentadecin-13(10H)-one] | –

Row | Compound | IC50 [1] [nM] | IC50 [2] [nM] | IC50 [3] [nM] | IC50 [4] [nM] | IC50 ([5]; Homo sapiens, MV4-11) [nM] | IC50 [6] [nM] | IC50 [7] [nM] | IC50 [8] [nM] | IC50 [9] [nM] | IC50 [10] [nM] | IC50 [11] [nM] | IC50 [5] [nM]
12 | (18E)-15-(2-hydroxyethyl)-8,10,13,17-tetramethyl-2,8,9,10,11,12,13,15-octahydro-14H-3,5-ethenotripyrazolo[3,4-f:3′,4′-j:4″,3″-n][1,4]diazacyclohexadecin-14-one [Ex. 26] | 0.386 | 0.605 | 31.1 | 0.233 | – | – | – | – | – | – | – | 15
